The test system of one data set is MEMs in WT-GBM tumors. In words: Free peptide homing and immunofluorescence in the orthotopic WT-GBM glioblastoma model. To be noted: 30 nmoles i.v., 2 h. As for the experimental part:
(§1) Thirty nmoles of FAM-UNO or FAM-control peptide were injected intravenously into mice and allowed to circulate for 2 h. Mice were then sacrificed and tumor and tissues were analyzed by immunofluorescence using rabbit anti-FAM (green) and rat anti-CD206 (red) antibodies, and counterstained with DAPI. […] The metastases were induced by i.v. inoculation of B16F10 melanoma cells. […] Blue: DAPI. Representative fields from multiple sections (n≥3) prepared from at least 3 tumors are shown. Scale bar: 50 μm. Images shown are representative fields from multiple sections (≥3) prepared from at least 3 tumors (n≥3 mice). The graphs show mean+SEM of FAM signal quantified as described in Materials and Methods.
(§2) Tumor models were induced according to protocols approved by the Estonian Ministry of Agriculture, Committee of Animal Experimentation (permit #48). For the 4T1 breast model, 8-week old female Balb/c mice were injected in the mammary fat pad with 10^6 cells dispersed in 50 μL of PBS. For homing studies, mice were used 10 days later, when the tumor had reached ˜150 mm^3. For MCF-7 breast model, 8-week old female nude mice were implanted with an estrogen pellet, and 1 week later inoculated with 5×10^6 MCF-7 cells in 100 μL of cold Matrigel (BD Biosciences, CA, USA). Mice were used for homing studies three weeks later (tumor volume˜150 mm^3). For the metastatic gastric carcinoma, 10^6 MKN45-P cells in PBS were injected intraperitoneally in 8-week old female nude mice. Mice were used for homing studies two weeks later. For the metastatic melanoma model, 2×10^5 B16F10 cells were injected intravenously in 100 μL of PBS in C57 BL6 mice. The mice were used for homing studies 10 days after. For the angiogenic glioblastoma model, WT-GBM 24, 7×10^5 cells were stereotactically injected in the right striatum of Fox/Nu mice 2 mm lateral and posterior of bregma of 2.5 mm deep. The mice were used for homing studies 6-7 days after the injection.
For free peptide homing studies, mice were injected intravenously with 30 nmoles of FAM-peptides in 100 μL of PBS. For nanoparticle homing studies-FAM-UNO—NP-PTX-, mice were injected intravenously in mice bearing MCF-7 breast tumors with 1 mg of Polymer in 100 μL pf PBS and allowed to circulate for 6 h. For tissue collection, the mice were anesthetized and the tissues collected and immediately placed in 4% cold PFA and left overnight at 4-C. Tissues were washed with PBS for 2 h at room temperature and cryoprotected with sucrose 15% at 4-C overnight and then in sucrose 30% at 4·C overnight. […] FAM was detected using Rabbit anti-FITC (Invitrogen, CA, USA. Catalog # A-889) at a dilution of 1/100 and using Alexa Fluor-546 anti-rabbit antibody (Invitrogen, Ca, USA. Catalog # A-11035) at a dilution of 1/200.

A further data set has as its system MEMs in MKN45-P tumors. To be noted: 30 nmoles i.v., 2 h. As for the experimental part: as §1
as §2, with “For the angiogenic glioblastoma model, WT-GBM 24, 7×10^5 cells were stereotactically injected in the right striatum of Fox/Nu mice 2 mm lateral and posterior of bregma of 2.5 mm deep. The mice were used for homing studies 6-7 days after the injection.” left out
For free peptide homing studies, mice were injected intravenously with 30 nmoles of FAM-peptides in 100 μL of PBS. […] FAM was detected using Rabbit anti-FITC (Invitrogen, CA, USA. Catalog # A-889) at a dilution of 1/100 and using Alexa Fluor-546 anti-rabbit antibody (Invitrogen, Ca, USA. Catalog # A-11035) at a dilution of 1/200.

Ends that are not written are not given here. FAM = 5(6)-carboxyfluorescein; Ahx = NCCCCCC(=O)O

1 substance from US11571484B2, “Compositions that target tumor-associated macrophages and methods of use therefor” (Sanford Burnham Prebys Medical Discovery Institute, priority 2017, dated 2023) can be followed below.

Consider “FAM-UNO: FAM-labeled UNO peptide CSPGAKVRC (SEQ ID NO: 1); 5(6)-carboxyfluorescein with 6-aminohexanoic acid spacer at the N-terminus ({FAM-Ahx}-CSPGAKVRC; cysteine pairing not given here)”, for which, in the data set on MEMs in WT-GBM tumors, the accumulation in tumor result was “accumulated in the tumor areas containing MEMs” and the “signal in normal brain parenchyma” value is “No signal”. In the data set on MEMs in MKN45-P tumors, the “accumulation in MEMs / CD206+ cells” value was “accumulated in MEMs”.
